From US9371265B2, “Compositions and methods related to inhibitors of JAK kinase” (EP PHARMA, INC., priority 2012, dated 2016)

Experiments:
PDGFRA = PDGFRA (Homo sapiens, UniProt P16234); test: Kinase panel: PDGFRA; assay type: biochemical; settings: 10 μM EP009
Method: (§1) Achieving JAK3 selectivity remains a significant challenge in the development of new small molecules for the treatment of cancer and immune-derived diseases. As such, the inventors employed cell-based screening assays of small-molecule libraries based upon the chemical scaffold of the established JAK3 inhibitor NC1153 (Stepkowski et al., J Immunol. (2005), 175(7):4236-4246) EP009 (FIG. 2A) was selected as a lead compound due to improved intrinsic stability (>95% purity in various solvents at 37° C. for 24 hours; FIG. 3) and high-degree of JAK3 selectivity. To test JAK3 versus JAK2 specificity of EP009, the IL-2/JAK3-dependent Kit225, and IL-3/JAK2-dependent BaF/3 cell lines were used. Kit225 and BaF/3 cells growing in the presence of IL-2 or IL-3, respectively, were treated with ascending concentrations of EP009 for 12 hours and cellular JAK3 and JAK2 tyrosine phosphorylation levels detected by Western blot analysis (FIGS. 2B and 2C). Following densitometric analysis, EP009 was determined to dose-dependently reduce IL-2-mediated JAK3 tyrosine phosphorylation with a cellular 50% inhibitory concentration (IC50) between 10 and 20 μM (FIG. 2B). […] To globally evaluate specificity, the inhibitory activity of EP009 was measured against a panel of protein kinases distributed throughout the kinome using the scanEDGE profiling service (KINOMEscan). […]

RAF1 = RAF1 (Homo sapiens, UniProt P04049); test: Kinase panel: RAF1; assay type: biochemical; settings: 10 μM EP009
RAF1, sequence (P04049 whole entry): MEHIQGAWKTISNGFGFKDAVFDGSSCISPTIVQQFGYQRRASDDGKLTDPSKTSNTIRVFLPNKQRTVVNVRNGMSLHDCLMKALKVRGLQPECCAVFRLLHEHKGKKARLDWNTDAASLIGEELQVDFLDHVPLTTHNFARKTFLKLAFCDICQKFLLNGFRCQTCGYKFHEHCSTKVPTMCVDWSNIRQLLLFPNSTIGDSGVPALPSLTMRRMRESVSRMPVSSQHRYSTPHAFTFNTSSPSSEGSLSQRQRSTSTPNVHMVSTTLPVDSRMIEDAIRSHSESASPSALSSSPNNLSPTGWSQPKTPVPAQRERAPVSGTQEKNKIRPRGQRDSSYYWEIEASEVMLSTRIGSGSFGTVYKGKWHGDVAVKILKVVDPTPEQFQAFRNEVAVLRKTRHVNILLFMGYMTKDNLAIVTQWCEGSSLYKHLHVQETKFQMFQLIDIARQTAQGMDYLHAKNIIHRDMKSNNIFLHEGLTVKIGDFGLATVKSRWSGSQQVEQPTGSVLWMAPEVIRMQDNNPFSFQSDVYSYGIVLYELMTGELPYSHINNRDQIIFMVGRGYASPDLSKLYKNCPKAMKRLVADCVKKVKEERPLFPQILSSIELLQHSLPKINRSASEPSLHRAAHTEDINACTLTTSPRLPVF
Method: as §1

MAP3K4 = MAP3K4 (Homo sapiens, UniProt Q9Y6R4); test: Kinase panel: MAP3K4; assay type: biochemical; settings: 10 μM EP009
MAP3K4, sequence (Q9Y6R4 whole entry): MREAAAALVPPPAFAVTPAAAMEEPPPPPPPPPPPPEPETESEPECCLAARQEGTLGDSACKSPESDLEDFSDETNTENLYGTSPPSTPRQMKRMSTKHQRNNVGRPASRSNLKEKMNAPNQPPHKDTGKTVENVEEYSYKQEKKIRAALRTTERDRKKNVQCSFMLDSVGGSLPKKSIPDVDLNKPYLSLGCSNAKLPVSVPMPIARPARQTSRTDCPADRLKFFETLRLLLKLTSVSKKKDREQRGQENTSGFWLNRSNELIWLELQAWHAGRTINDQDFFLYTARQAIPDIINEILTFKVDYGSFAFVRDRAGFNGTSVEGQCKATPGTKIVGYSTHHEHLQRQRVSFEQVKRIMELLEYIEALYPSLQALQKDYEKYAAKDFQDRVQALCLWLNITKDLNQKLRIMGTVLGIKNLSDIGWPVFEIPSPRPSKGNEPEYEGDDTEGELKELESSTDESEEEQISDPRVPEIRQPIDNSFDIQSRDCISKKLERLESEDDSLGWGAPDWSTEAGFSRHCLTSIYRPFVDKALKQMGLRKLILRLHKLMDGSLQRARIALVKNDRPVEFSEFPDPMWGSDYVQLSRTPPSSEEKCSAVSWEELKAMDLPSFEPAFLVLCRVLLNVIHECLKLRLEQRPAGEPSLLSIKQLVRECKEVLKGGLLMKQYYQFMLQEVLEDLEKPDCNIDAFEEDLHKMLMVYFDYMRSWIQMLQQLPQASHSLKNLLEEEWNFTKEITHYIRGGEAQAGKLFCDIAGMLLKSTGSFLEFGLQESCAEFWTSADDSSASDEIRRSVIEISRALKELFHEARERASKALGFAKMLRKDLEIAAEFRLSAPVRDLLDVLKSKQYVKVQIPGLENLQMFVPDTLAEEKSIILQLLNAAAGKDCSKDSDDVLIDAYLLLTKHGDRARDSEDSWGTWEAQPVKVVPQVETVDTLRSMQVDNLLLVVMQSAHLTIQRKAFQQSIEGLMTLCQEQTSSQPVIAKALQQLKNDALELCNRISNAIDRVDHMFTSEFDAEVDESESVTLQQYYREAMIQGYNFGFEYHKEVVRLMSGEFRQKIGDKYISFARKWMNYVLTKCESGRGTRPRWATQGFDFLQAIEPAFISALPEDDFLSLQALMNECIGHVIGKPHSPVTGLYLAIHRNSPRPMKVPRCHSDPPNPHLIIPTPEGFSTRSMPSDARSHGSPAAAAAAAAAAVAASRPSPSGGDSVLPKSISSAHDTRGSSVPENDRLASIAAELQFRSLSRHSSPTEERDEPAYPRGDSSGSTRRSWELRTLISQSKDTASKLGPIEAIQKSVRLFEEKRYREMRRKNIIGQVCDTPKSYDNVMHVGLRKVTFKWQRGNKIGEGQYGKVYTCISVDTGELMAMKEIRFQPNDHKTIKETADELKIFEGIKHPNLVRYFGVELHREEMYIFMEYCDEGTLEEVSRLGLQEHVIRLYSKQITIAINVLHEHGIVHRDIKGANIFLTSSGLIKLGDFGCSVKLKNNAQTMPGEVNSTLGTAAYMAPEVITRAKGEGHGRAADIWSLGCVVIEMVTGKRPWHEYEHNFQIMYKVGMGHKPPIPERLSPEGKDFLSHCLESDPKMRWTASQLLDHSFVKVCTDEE
Method: as §1

SU-DHL-1 tumors = test: SU-DHL-1 xenograft human lymphoma model; assay type: in vivo, SCID/NOD mice
Method: FIGS. 9A-9B Pharmacokinetics and efficacy of EP009 in vivo. (A) Sprague Dawley rats were administered EP009 by oral gavage (200 mg/kg) and pharmacokinetics measured by analysis of plasma concentrations at indicated time points. Values represent mean concentrations, while error bars represent the standard deviation (n=5). (B) Therapeutic study of EP009 in SU-DHL-1 model in SCID/NOD mice.
Severe combined immunodeficient/nonobese diabetic (SCID/NOD) mice were purchased from Charles River (Milan, Italy). The SU-DHL-1 model, 28 which was established by subcutaneous injection of 1×10^7 SU-DHL-1 cells in the left flank of SCID/NOD mice, served as the xenograft human lymphoma model. Tumor masses were measured with caliper in two perpendicular diameters in a blind fashion to determine the longest diameter. Progressively growing masses >1 mm in diameter were regarded as tumors. Mice were divided into three groups (n=8/group) and treatments initiated when tumors were established and measurable (day 16 after tumor challenge). Control mice received oral gavage of saline (placebo), while treated mice received EP009 orally (100 or 200 mg/kg) three times per week for six weeks. The study was terminated when tumors began to show signs of ulcerations and measurements became inaccurate (day 58). All animal were maintained in the animal facility of the Molecular Biotechnology Center, University of Turin and treated in accordance with the European guidelines.

p38-beta = p38-beta (Homo sapiens, UniProt Q15759); test: Kinase panel: p38-beta; assay type: biochemical; settings: 10 μM EP009
p38-beta, sequence (Q15759 whole entry): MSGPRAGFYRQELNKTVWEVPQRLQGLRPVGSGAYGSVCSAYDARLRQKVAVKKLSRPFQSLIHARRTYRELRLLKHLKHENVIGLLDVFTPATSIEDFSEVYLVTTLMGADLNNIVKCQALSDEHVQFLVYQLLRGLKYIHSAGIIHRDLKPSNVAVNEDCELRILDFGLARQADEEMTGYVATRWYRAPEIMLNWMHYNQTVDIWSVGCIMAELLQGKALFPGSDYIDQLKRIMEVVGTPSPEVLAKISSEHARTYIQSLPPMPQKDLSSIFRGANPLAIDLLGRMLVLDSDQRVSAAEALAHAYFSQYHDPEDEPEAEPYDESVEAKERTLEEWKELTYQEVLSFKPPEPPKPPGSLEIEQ
Method: as §1

PKAC-alpha = PKAC-alpha (Homo sapiens, UniProt P17612); test: Kinase panel: PKAC-alpha; assay type: biochemical; settings: 10 μM EP009
Method: as §1

SUP-M2 cells = test: SUP-M2 cell viability (MTS); assay type: cell-based; settings: Homo sapiens; SUP-M2, 72 hours
Method: FIGS. 7A-7C. EP009 reduces ALCL cell viability through induction of caspase 3 mediated apoptosis. (A) SUP-M2, SU-DHL-1 or H2228 cells were cultured with increasing amounts of EP009 (0-10 μM) for 72 hours and cell viability measured with the MTS tetrazolium salt assay. Values represent mean absorbance (OD490-OD650 nm) normalized to vehicle (PBS) treated control cells, while error bars represent the standard deviation (n=3). (B) SU-DHL-1 cells were treated with vehicle (PBS) or increasing amounts of EP009 (0-50 μM) for 24 hours. Cells were then lysed, clarified, and subjected to Luminex multiplex analysis to detect activated caspase 3 and (C) cleaved PARP. Values represent MFI normalized to corresponding GAPDH MFI, while error bars represent the standard deviation (n=2). Representative data from three independent experiments are shown. Statistical significance was determined using Student's t-test. (*, p<0.05).
Cell viability was assessed with 3-(4,5-dimethylthiazol-2-yl)-5-(3-carboxymethoxyphenyl)-2-(4-sulfophenyl)-2H-tetrazolium salt (MTS) reagent (Promega) in triplicates according to the manufacturer's instructions. Three independent experiments were performed. The error bars represent standard deviation.

CSNK1G2 = CSNK1G2 (Homo sapiens, UniProt P78368); test: Kinase panel: CSNK1G2; assay type: biochemical; settings: 10 μM EP009
CSNK1G2, sequence (P78368 whole entry): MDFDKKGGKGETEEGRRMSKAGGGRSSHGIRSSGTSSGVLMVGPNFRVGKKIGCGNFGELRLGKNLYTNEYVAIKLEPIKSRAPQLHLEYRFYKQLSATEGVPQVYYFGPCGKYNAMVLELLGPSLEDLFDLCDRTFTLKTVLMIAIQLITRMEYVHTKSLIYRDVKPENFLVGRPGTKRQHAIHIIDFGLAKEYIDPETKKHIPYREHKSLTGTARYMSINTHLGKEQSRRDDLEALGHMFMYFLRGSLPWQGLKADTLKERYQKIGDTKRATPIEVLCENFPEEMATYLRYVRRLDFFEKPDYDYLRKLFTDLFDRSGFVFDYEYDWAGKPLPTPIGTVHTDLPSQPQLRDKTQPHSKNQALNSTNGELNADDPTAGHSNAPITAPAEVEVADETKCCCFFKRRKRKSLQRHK
Method: as §1

PDGFRA, sequence (P16234 24-1089): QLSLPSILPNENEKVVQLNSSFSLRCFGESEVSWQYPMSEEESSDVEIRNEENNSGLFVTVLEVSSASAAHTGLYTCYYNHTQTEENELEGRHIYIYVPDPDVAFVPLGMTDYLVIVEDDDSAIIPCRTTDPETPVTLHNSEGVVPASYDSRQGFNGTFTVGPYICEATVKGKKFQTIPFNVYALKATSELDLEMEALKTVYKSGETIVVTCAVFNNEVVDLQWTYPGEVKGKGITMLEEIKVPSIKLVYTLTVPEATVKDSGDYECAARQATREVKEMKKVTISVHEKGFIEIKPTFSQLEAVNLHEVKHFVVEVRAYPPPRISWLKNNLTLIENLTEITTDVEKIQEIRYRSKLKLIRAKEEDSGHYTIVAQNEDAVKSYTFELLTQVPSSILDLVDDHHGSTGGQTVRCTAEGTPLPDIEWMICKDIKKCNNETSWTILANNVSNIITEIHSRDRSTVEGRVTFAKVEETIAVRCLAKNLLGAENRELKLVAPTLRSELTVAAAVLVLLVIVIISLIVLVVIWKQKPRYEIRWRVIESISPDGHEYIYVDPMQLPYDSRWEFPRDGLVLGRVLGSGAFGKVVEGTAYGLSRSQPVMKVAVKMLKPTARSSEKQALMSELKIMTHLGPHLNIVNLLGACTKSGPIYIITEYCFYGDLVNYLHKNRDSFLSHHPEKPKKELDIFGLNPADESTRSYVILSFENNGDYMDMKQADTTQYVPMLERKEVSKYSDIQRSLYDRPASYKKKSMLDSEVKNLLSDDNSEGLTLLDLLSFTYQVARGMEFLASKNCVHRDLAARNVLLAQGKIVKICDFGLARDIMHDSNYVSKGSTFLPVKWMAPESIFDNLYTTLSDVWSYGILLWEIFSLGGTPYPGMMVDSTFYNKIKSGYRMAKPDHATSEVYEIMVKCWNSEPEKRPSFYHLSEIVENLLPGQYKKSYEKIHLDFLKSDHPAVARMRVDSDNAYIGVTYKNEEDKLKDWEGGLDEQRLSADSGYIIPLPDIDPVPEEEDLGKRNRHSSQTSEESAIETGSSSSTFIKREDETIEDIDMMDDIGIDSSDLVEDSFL

Q: How did the “Kinase Activity (% of Control)” value (PDGFRA) turn out when `C=C1CCCCCCCCCC(CO)C1=O` (stereo not shown) [EP009, 2-(Hydroxymethyl)-12-methylenecyclododecanone] was run?
A: 100 % of Control

Q: And the “Kinase Activity (% of Control)” value (RAF1)?
A: 97 % of Control

Q: What about the “Kinase Activity (% of Control)” value (MAP3K4) of the same compound?
A: 87 % of Control

Q: What about the tumor growth inhibition (SU-DHL-1 tumors; oral 100 mg/kg three times per week, p<0.05) of the same compound?
A: 37.5%

Q: And the tumor growth inhibition (SU-DHL-1 tumors; oral 200 mg/kg three times per week, p<0.01)?
A: 51%

Q: And the body weight changes (SU-DHL-1 tumors; oral 100 and 200 mg/kg)?
A: No significant body weight changes

Q: And the “Kinase Activity (% of Control)” value (p38-beta)?
A: 96 % of Control

Q: What about the “Kinase Activity (% of Control)” value (PKAC-alpha) of the same compound?
A: 100 % of Control

Q: What about the IC50 (SUP-M2 cells) of the same compound?
A: 5 µM

Q: And the “Kinase Activity (% of Control)” value (CSNK1G2)?
A: 100 % of Control
